Reference: US5824692A (priority 1995, dated 1998)

Test system: dopamine release, synaptosomes from the striatal area of rat brain
Experiment: Dopamine release from rat striatal synaptosomes
Type: biochemical, rat (Sprague-Dawley)
Conditions: [3H]-dopamine release, relative to (S)-(-)-nicotine
Protocol: Determination of Dopamine Release
Dopamine release was measured by preparing synaptosomes from the striatal area of rat brain obtained from Sprague-Dawley rats generally according to the procedures set forth by Nagy et al., J. Neurochem., Vol. 43, pp. 1114-1123 (1984). Striata from 4 rats were homogenized in 2 ml of 0.32M sucrose buffered with 5 mM HEPES (pH 7.5), using a glass-Teflon tissue grinder. The homogenate was diluted to 5 ml with additional homogenization solution and centrifuged at 1,000 x g for 10 min. This procedure was repeated on the new pellet and the resulting supernatant was centrifuged at 12,000 x g for 20 min. A 3 layer discontinuous Percoll gradient consisting of 16 percent, 10 percent and 7.5 percent Percoll in HEPES-buffered sucrose was made with the final pellet dispersed in the top layer. After centrifugation at 15,000 x g for 20 min., the synaptosomes were recovered above the 16 percent layer with a Pasteur pipette, diluted with 8 ml of perfusion buffer (128 mM NaCl, 2.4 mM KCl, 3.2 mM CaCl2, 1.2 mM KH2 PO4, 1.2 mM MgSO4, 25 mM HEPES pH 7.4, 10 mM dextrose, 1 mM ascorbate, 0.01 mM pargyline), and centrifuged at 15,000 x g for 20 min. The new pellet was collected and re-suspended in perfusion buffer. The synaptosome suspension was incubated for 10 min. at 37° C. [^3 H]-Dopamine (Amersham, 40-60 Ci/mmol) was added to the suspension to give a final concentration of 0.1 uM, and the suspension was incubated for another 5 min. Using this method, 30 to 90 percent of the dopamine was taken up into the synaptosomes, as determined by scintillation counting following filtration through glass fiber filters soaked with 0.5 percent polyethyleneimine. A continuous perfusion system was used to monitor release following exposure to each ligand. Synaptosomes were loaded onto glass fiber filters (Gelman type A/E). Perfusion buffer was dripped onto the filters (0.2-0.3 ml/min.) and pulled through the filters with a peristaltic pump. Synaptosomes were washed with perfusion buffer for a minimum of 20 min. before addition of the ligand. After the addition of 0.2 ml of a solution containing various concentrations of ligand, the perfusate was collected into scintillation vials at 1 min. intervals and the dopamine released was quantified by scintillation counting. Peaks of radioactivity released above background were summed and the average basal release during that time was subtracted from the total.

Row | Compound | Dopamine Release Emax [% nicotine]
1 | CNCC/C=C/c1ccc(C)nc1 [Sample No. 6, (E)-N-methyl-4-[3-(6-methylpyrindin)yl]-3-butene-1-amine] | 60
2 | CNCC/C=C\c1cccnc1 [Sample No. 5, (Z)-metanicotine] | 88
3 | CNCC/C=C/c1cncnc1 [Sample No. 2, (E)-N-methyl-4-(5-pyrimidinyl)-3-butene-1-amine] | 77
4 | NCC/C=C/c1cncnc1.O=C(O)/C=C/C(=O)O [Sample No. 1, (E)-4-(5-pyrimidinyl)-3-butene-1-amine monofumarate] | 113
5 | CNCC/C=C/c1cccnc1 [Sample No. C-2, (E)-metanicotine, reference compound] | 80
6 | CNCCC#Cc1cccnc1 [Sample No. 4, N-Methyl-4-(3-pyridinyl)-3-butyne-1-amine] | 87
7 | COc1cncc(/C=C/CCN)c1 [Sample No. 3, (E)-4-[3-(5-methoxypyridin)yl]-3-butene-1-amine monofumarate] | 95
8 | CN1CCC[C@H]1c1cccnc1 [Sample No. C-1, (S)-(-)-nicotine, reference compound] | 100
